Results taken from paper PMC5084075 (ACS Central Science, 2016).
pIC50: −log10 of the molar value. Read-outs that look alike come from different tables or passages of the source.

Legend:
PfDHODH [1] = molecular target: T1, PfDHODH (Plasmodium falciparum, UniProt Q08210); experiment: biochemical; design: PfDHODH enzyme inhibition IC50; conditions: read-out: >50
T1 sequence (Q08210 1-569): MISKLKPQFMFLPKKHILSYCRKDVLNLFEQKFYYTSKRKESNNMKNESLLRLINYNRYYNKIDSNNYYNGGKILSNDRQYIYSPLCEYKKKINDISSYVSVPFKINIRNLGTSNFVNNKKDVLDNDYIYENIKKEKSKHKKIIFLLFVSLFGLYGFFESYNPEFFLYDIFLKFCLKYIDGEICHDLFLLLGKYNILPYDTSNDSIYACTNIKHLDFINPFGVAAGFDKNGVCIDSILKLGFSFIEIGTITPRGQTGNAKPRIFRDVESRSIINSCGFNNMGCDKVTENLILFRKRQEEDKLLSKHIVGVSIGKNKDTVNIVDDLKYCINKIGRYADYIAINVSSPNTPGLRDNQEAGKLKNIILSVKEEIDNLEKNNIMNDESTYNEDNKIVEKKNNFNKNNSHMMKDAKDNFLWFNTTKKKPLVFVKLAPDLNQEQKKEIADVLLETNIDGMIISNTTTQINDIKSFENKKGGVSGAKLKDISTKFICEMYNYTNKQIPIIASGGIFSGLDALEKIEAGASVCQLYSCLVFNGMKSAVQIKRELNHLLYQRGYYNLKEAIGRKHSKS

in vitro [2] = experiment: in vitro; design: cytotoxicity counter-screen on HEK293 cells; conditions: human, hek293 cells; read-out: HEK 293 / IC50nM
Experimental: (§1) To confirm the promise of the two starting points OSM-S-5 and -6, they were evaluated against 3D7 (drug-sensitive) and K1 (chloroquine resistant) strains of Plasmodium falciparum in a whole cell assay and against HEK-293 cells as a cytotoxicity marker (Table SB1, Biological Protocols; tables with the prefix “SB” may be found in the Supporting Information). Biological data may be browsed in a static data set taken as a snapshot for this paper (Data Sets S1 (Excel), S2 (SDF)), online in a database constructed through periodic batch uploads,[68] or in a “living database” to which may be added future data;[69] the latter may be visualized in a web browser[70] using an open source system that was recently deployed in the Wikipedia Chemical Structure Explorer,[71] or the data may be downloaded and visualized offline with proprietary (Figure S4)[72] or open source (Figure S5)[73] tools). The evaluation was performed in three different institutions using different assays and widely employed controls; controls are important to assess reproducibility and interassay variability[74] but also to minimize possible bias in evaluating compounds where there are pre-existing data from other researchers already in the public domain (Figure S6).[75]

[3] = tested on: T2, Plasmodium falciparum 3D7; experiment: microbe, parasite or virus in culture; design: species or system P. falciparum blood stage culture; whole-cell asexual blood stage P. falciparum growth inhibition; conditions: Avery assay, read-out: 3D7 / IC50nM
T2 construct: 3D7
Experimental: as §1

[4] = tested on: T3, Plasmodium falciparum K1 (chloroquine resistant); experiment: microbe, parasite or virus in culture; design: species or system P. falciparum blood stage culture; whole-cell asexual blood stage P. falciparum growth inhibition
T3 construct: K1
Experimental: as §1

[5] = tested on: T4, Plasmodium falciparum Pfal (3D7); experiment: microbe, parasite or virus in culture; design: species or system erythrocytes; P. falciparum asexual blood-stage whole-cell growth inhibition, IC50; conditions: 3D7, Erythrocyte, lab named in column head
T4 construct: 3D7
Experimental: as §1

[6] = tested on: T5, Plasmodium falciparum Pfal (K1); experiment: microbe, parasite or virus in culture; design: species or system erythrocytes; P. falciparum asexual blood-stage whole-cell growth inhibition, IC50; conditions: K1, Erythrocyte, lab named in column head
T5 construct: K1
Experimental: as §1

[7] = molecular target: T6, hERG (human ether-à-go-go-related gene ion channel) (Homo sapiens, UniProt Q12809); experiment: cell-based; design: hERG channel inhibition counterscreen; conditions: read-out: hERG pIC50 (converted)
T6 construct: gene KCNH2
Source text: There is increasing awareness of the importance for drug candidates of inhibition of hERG (the human ether-à-go-go-related gene ion channel), which is sensitive to blockade by many drug-like structures. Such blockage has led to a number of prominent postmarketing withdrawals.[103] Regulators are sensitive to any hERG activity, and a hERG counterscreen is often now run early in hit characterization and series prioritization.

in vitro [8] = experiment: in vitro; design: plasma stability, half-life and per cent remaining; conditions: plasma; plasma Mouse; read-out: t1/2 plasma Mouse
Experimental: (§2) Representative compounds from both subseries were evaluated in an oral in vivo mouse trial (Data Set S22). The original starting points OSM-S-5 and -6 (Figure 2) were chosen along with NN representative OSM-S-35 (Figure 4). […] It is plausible that at least some of the arylpyrrole ester compounds would be degraded by general hydrolysis during absorption, and this could explain their inactivity in the mouse model despite their more favorable (although still high) cLogP values. […] Esterase activity is higher in rodents than in other species,[102] as confirmed by using p-nitrophenol acetate as a control compound in this assay.

[9] = tested on: Plasmodium falciparum mature stage V gametocytes (DGFA); experiment: microbe, parasite or virus in culture; design: dual gamete formation assay, inhibition of male and female gamete formation; conditions: 24 h
Experimental: (§3) The discrepancy in the data arising from these two gametocyte assays may arise from the slightly different cell biology assayed (stage IV/V gametocytes vs stage V mature gametocytes) or most likely is a function of the relative compound exposure times (96 h vs 24 h).

in vitro [10] = experiment: in vitro; design: stability in mouse plasma; conditions: plasma; mouse plasma; read-out: t1/2 plasma Mouse
Experimental: as §2

[11] = tested on: Plasmodium falciparum Pfal (strain not named in column head); experiment: microbe, parasite or virus in culture; design: species or system P. falciparum blood stage culture; whole-cell asexual blood stage P. falciparum growth inhibition
Experimental: as §1

PfDHODH [12] = molecular target: T1, PfDHODH; experiment: biochemical; design: PfDHODH enzyme inhibition IC50; conditions: read-out: DHODH
Source text: (§4) The potency of the near neighbor set led to an in silico target prediction study being performed on OSM-S-39 (Text S11). The method employed a naive Bayes statistical model identifying molecular structural features of small molecules with protein targets, using the ChEMBL database. Similar statistical approaches based on known activities of compounds have been successfully applied to identify targets of antitubercular compounds.[112]−[114] A total of 1,287 proteins were included for which at least 50 active compounds were known with activities <10 μM, with the other compounds in the database comprising the inactives. After the OSM compounds were scored against each target, the scores obtained were standardized by comparison with scores obtained through comparison with a random set of >10K compounds. The prediction list was culled for proteins relevant to malaria (3D7 proteome), and the analysis gave as the most likely candidate targets, in order of significance, carboxy-terminal domain RNA polymerase II polypeptide A small phosphatase 1 (Q8I3U9), dihydroorotate dehydrogenase (DHODH, Q08210), SUMO-activating enzyme subunit 2 (Q8I553) and 1 (Q8IHS2), and cyclin-dependent kinase 1 (P61075). […] A line of inquiry remaining open is the equivalent assays against the other targets identified in the in silico prediction.

[13] = tested on: Plasmodium falciparum late stage (IV-V) gametocytes; experiment: microbe, parasite or virus in culture; design: species or system P. falciparum gametocytes; late stage (IV-V) gametocyte viability assay; conditions: 96 h, read-out: Late Stage Gametocyte (Avery)
Experimental: as §3, with “There are relatively few compounds effective against the gametocyte stage of the parasite,[12],[13] though such compounds are important in the prevention of disease transmission. Four compounds found to be active in the asexual assay were evaluated against late stage (IV–V) gametocytes. […] The” for “The”

HEK293 = experiment: cells; design: cytotoxicity counter-screen on HEK293 cells; conditions: Homo sapiens, cytotoxicity
Experimental: as §1

in vitro [14] = experiment: in vitro; design: HepG2 cytotoxicity beside the liver stage assay; conditions: human, hepg2 cells
Source text: (§5) Of particular note is the striking potency of the nontoxic compound OSM-S-38, which may at this level provide protection from malaria to people who have been treated with the compound after an infectious bite.

PfDHODH [15] = molecular target: T1, PfDHODH; experiment: biochemical; design: PfDHODH enzyme inhibition assay, IC50; conditions: read-out: DHODH
Source text: as §4

[16] = tested on: Plasmodium berghei Pb Liver Stage; experiment: microbe, parasite or virus in culture; design: liver stage assay, sporozoites in liver cells; conditions: HepG2
Source text: as §5

[17] = tested on: Plasmodium berghei Pb Liver Stage; experiment: microbe, parasite or virus in culture; design: P. berghei sporozoite liver stage development inhibition, IC50; conditions: HepG2
Source text: as §5

in vitro [18] = experiment: in vitro; design: metabolic stability in mouse liver microsomes, LC-MS, NADPH, 0.4 mg/mL protein; conditions: liver microsomes, mouse liver microsomes
Experimental: (§6) The two original GSK hits (OSM-S-5 and -6) and six NN compounds were evaluated for their kinetic solubility in phosphate buffer and their metabolic stability in human liver microsomes (Table SB5, Data Sets S20 and S21).

in vitro [19] = experiment: in vitro; design: metabolic stability in human liver microsomes, LC-MS, NADPH, 0.4 mg/mL protein; conditions: liver microsomes, human liver microsomes
Experimental: as §6

in vitro [20] = experiment: in vitro; design: microsomal stability with NADPH, LC-MS, half-life and CLint; conditions: human, liver microsomes, HLM
Experimental: as §6

[21] = Avery assay, read-out: K1 / IC50nM

T6 sequence (Q12809 whole entry): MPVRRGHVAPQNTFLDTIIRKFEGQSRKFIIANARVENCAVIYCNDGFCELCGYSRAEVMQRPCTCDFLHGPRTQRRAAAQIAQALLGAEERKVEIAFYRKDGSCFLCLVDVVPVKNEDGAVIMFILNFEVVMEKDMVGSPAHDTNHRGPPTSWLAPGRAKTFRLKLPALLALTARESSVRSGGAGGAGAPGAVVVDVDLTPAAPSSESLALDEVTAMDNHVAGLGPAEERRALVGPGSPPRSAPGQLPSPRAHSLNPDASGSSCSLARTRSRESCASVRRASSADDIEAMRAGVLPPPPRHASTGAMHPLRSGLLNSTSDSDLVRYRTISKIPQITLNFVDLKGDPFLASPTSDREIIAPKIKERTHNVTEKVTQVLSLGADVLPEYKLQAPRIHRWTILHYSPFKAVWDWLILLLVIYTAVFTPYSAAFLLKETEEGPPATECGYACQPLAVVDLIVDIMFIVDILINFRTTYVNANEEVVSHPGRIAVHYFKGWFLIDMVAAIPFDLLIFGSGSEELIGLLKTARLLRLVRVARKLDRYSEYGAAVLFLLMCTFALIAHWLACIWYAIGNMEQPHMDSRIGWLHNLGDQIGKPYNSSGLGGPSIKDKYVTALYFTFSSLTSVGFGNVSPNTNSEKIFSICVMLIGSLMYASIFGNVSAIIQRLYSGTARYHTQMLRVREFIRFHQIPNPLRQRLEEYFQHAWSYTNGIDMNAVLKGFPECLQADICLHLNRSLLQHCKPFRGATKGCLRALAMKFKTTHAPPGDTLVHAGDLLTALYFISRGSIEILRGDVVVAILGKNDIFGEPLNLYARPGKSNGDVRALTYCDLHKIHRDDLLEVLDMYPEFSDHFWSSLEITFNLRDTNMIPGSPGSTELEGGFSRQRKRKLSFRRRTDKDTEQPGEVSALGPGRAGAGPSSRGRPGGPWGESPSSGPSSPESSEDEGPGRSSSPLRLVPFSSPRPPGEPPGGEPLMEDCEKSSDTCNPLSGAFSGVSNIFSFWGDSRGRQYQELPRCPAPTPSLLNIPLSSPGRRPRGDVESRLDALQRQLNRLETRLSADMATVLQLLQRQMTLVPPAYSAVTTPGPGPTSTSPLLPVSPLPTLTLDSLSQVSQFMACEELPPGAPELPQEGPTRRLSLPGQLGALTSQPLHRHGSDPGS

CC(C)=CCC1=C(O)C(=O)c2ccccc2C1=O [Lapachol]
pIC50 (PfDHODH [1]): < 4.00

CN(Cc1cnc2nc(N)nc(N)c2n1)c1ccc(C(=O)N[C@@H](CCC(=O)O)C(=O)O)cc1 [Methotrexate]
CC50 (in vitro [2]): 11.8 nM | pIC50 [3]: 7.59 | pIC50 [4, 21]: 7.60

Cc1cc(C(=O)OCC(N)=O)c(C)n1-c1ccc(F)cc1 [OSM-S-5]
pIC50 ([5]; read-out: Pfal IC50 (Batra)): 6.24 | pIC50 ([6]; read-out: Pfal (K1) IC50 (Batra)): 6.19 | IC50 [7]: > 31600 nM | half-life (in vitro [8]): 1.9 h | inhibition at 1 µM ([9]; female gametocytes): 13.5% | inhibition at 1 µM ([9]; male gametocytes): 5.1% | half-life (in vitro [10]): 1.9 h | pIC50 ([11]; Batra assay): 6.24 | pIC50 ([4]; Batra assay, read-out: Pfal (K1) IC50 (Batra)): 6.19 | pIC50 (PfDHODH [12]): < 4.30

CC(=O)N(C1=NC(=O)/C(=C/c2cc(C)n(-c3ccc(F)cc3)c2C)S1)c1ccccc1 [OSM-S-9]
pIC50 [13]: 7.55 | pIC50 (PfDHODH [12]): < 4.30

Cc1cc(/C=C2\SC(=Nc3ccccc3)NC2=O)c(C)n1-c1ccccc1 [OSM-S-35]
IC50 [7]: > 31600 nM | inhibition at 40 µM (HEK293): 57% | pIC50 (PfDHODH [12]): < 4.30

Cc1cc(/C=C2\S/C(=N\c3ccccc3)NC2=O)c(C)n1-c1ccc(C(F)(F)F)cc1 [OSM-S-38]
pIC50 [13]: 8.40 | inhibition at 1 µM ([9]; female gametocytes): 20.5% | inhibition at 1 µM ([9]; male gametocytes): 26.5% | CC50 (in vitro [14]): > 50000 nM | pIC50 (PfDHODH [12]): < 4.30

Cc1cc(/C=C2\S/C(=N\c3ccccc3)NC2=O)c(C)n1-c1cc(C(F)(F)F)cc(C(F)(F)F)c1 [OSM-S-39]
pIC50 [13]: 8.59 | inhibition at 1 µM ([9]; female gametocytes): 31.3% | inhibition at 1 µM ([9]; male gametocytes): 36.1% | pIC50 (PfDHODH [12]): < 4.30

Cc1cc(/C=C2\SC(=Nc3ccccc3)N(CC#N)C2=O)c(C)n1-c1ccc(C(F)(F)F)cc1 [OSM-S-42]
pIC50 (PfDHODH [15]): < 4.30

Cc1cc(/C=C2\SC(=Nc3ccccc3)N(c3ccccc3)C2=O)c(C)n1-c1ccc(C(F)(F)F)cc1 [OSM-S-52]
pIC50 (PfDHODH [15]): < 4.30

Cc1cc(/C=C2\SC(=Nc3ccccc3)N(C3CCCC3)C2=O)c(C)n1-c1ccc(C(F)(F)F)cc1 [OSM-S-54]
pIC50 (PfDHODH [15]): < 4.30

COc1ccc(-n2c(C)cc(/C=C3\SC(=Nc4ccccc4)NC3=O)c2C)cc1 [OSM-S-111]
pIC50 ([5]; read-out: Pfal IC50 (Guy)): 6.83 | pIC50 ([6]; read-out: Pfal (K1) IC50 (Guy)): 6.69 | pIC50 [13]: 6.16 | inhibition at 40 µM (HEK293): 32% | pIC50 [16]: 6.46 | inhibition at 1 µM ([9]; male gametocytes): 21.1% | pIC50 ([11]; Guy assay): 6.83 | pIC50 ([4]; Guy assay, read-out: Pfal (K1) IC50 (Guy)): 6.69 | pIC50 [17]: 6.46 | microsomal CLint (in vitro [18]; read-out: 0.4 / CLint, in vitro / (mL/min/mg protein)): 0.0371 mL/min/mg | half-life (in vitro [18]; read-out: Protein Conc. (mg/mL): / Degradation half-life /): 0.777 h | CC50 (in vitro [14]): 4390 nM | microsomal CLint (in vitro [19]; read-out: CLint HLM (Monash)): 8 µL/min/mg | half-life (in vitro [19]; read-out: t1/2 HLM (Monash)): 3.45 h | microsomal CLint (in vitro [20]; read-out: CLint HLM (Monash)): 8 µL/min/mg | half-life (in vitro [20]; read-out: t1/2 HLM (Monash)): 3.45 h

CCc1nc(N)nc(N)c1-c1ccc(Cl)cc1 [Pyrimethamine]
CC50 (in vitro [2]): 13900 nM | pIC50 [3]: 7.96 | pIC50 [4, 21]: 4.92

COc1ccc2nc3cc(Cl)ccc3c(Nc3cc(CN4CCCC4)c(O)c(CN4CCCC4)c3)c2n1 [Pyronaridine]
CC50 (in vitro [2]): 7700 nM | pIC50 [3]: 7.82 | pIC50 [4, 21]: 7.67

COc1ccc(-n2ccnc2SCC(=O)Nc2cc(C(F)(F)F)ccc2Cl)c(OC)c1 [TCMDC-123822]
pIC50 (PfDHODH [1]): 7.32
